Columns and labels:
[1] = target: T1, YTHDF2-bound mRNAs (PEG10, NOTCH2, CREBBP) in PC-3 cells (Homo sapiens, UniProt Q9Y5A9); assay: Ribonucleoprotein immunoprecipitation (RIP) followed by qRT-PCR; type: cell-based; details: 25 μM, 24 h, versus DMSO
T1 construct: endogenous in cells; host or cells: PC-3
T1 sequence (Q9Y5A9 1-579): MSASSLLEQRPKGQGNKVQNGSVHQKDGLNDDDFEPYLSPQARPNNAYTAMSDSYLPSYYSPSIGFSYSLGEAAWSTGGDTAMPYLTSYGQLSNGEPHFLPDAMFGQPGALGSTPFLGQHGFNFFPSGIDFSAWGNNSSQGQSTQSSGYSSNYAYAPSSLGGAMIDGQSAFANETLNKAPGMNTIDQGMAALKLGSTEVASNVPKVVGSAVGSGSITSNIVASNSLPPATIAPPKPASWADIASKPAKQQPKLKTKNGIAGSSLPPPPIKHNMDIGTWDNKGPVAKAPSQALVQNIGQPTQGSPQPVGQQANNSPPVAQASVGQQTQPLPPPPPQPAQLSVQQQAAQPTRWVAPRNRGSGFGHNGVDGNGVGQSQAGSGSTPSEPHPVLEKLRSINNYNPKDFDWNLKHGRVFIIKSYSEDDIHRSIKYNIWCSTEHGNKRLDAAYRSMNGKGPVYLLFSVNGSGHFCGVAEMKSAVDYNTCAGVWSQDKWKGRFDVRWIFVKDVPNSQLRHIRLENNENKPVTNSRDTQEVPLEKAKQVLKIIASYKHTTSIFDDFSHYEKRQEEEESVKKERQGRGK
Experimental: Five million cells were used for each RIP experiment followed by qRT-PCR,[65] without cross-linking steps and using 1–15 μg of the YTHDF2 antibody (Proteintech, 24744-1-AP) or the same amount of the rabbit normal IgG isotype (negative control, Cell Signaling, 2729S). Cells were harvested after 24 h of treatment with 25 μM ebselen and DMSO as the control, lysed with 20 mM Tris–HCl at pH 7.5, 100 mM KCl, 5 mM MgCl2, and 0.5% NP-40 for 10 min on ice, and centrifuged at 15,000g for 10 min at 4 °C. Lysates were then incubated with Dynabead A/G (Thermo Fisher, 10001D/10003D) for pre-clearing for 1 h at 4 °C and then with Dynabeads A/G (80/20 ratio) at RT for 1 h with YTHDF2 or rabbit isotype IgG for Ab coating. After the pre-clearing steps and the coating, lysates were split between YTHDF2 and IgG-coated beads, while 1–5% of the lysate was stored as the input and incubated O/N at 4 °C. Finally, samples were washed with NT2 buffer for five times, 5 min each at 4 °C. […] For each condition, the ΔCt value of IgG and YTHDF2 was evaluated in triplicate. Normalization of the values was then carried out following the percent input method, in which values from IgG and YTHDF2 IP were calculated as % input of the adjusted input values. […] YTHDF2 and IgG fractions were calculated as % input by subtracting to the adjusted input values their ΔCt values. […]

[2] = target: T2, YTH domain of YTHDF1 / biotinylated RNA probe 5′-Bi-CCGAm6ACUGUC-3′ (Homo sapiens, UniProt Q9BYJ9); assay: AlphaScreen competitive assay, saturation binding; details: 50 nM RNA, 50 nM protein, compound 0–100 μM
T2 construct: The human YTHDF1 YTH domain (amino acids 365–554, PDB: 4RCJ); host or cells: E. coli BL21(DE3)
T2 sequence (Q9BYJ9 365-554): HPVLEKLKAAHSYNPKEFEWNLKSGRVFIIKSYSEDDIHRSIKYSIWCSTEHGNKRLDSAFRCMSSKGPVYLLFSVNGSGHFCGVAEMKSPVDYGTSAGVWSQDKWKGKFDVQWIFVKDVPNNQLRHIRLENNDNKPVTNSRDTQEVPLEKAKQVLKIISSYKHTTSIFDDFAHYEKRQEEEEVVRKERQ
Experimental: The Amplified Luminescent Proximity Homogeneous Assay (ALPHA Assay) was performed in white 384-well Optiplates (PerkinElmer) in a final volume of 20 μL, and it was first optimized by titrating both the protein and the biotinylated RNA probe (5′-Bi-CCGAm6ACUGUC-3′, Dharmacon) to find the appropriate right protein/RNA ratio before the saturation of the detection signal. […] Anti-His acceptor beads (PerkinElmer) (20 μg/mL final concentration) and streptavidin donor beads (20 μg/mL final concentration) were added and the reaction was incubated in the dark at room temperature for 1 h to reach equilibrium. Light signals were detected with an Enspire Multimode Plate reader (PerkinElmer). […] The IC50 of ebselen was determined from the nonlinear regression fits of the data.

Structure (SMILES): O=c1c2ccccc2[se]n1-c1ccccc1 [Compound 1, 2-phenyl-1,2-benzisoselenazol-3(2H)-one]
- YTHDF2-bound target mRNA levels (RIP, in words) [1]: decrease of the mRNA levels compared to control samples
- IC50 [2]: 3.565 ± 0.009 µM

Reference: publication PMC9578143, “Small-Molecule Ebselen Binds to YTHDF Proteins Interfering with the Recognition of N^6-Methyladenosine-Modified RNAs” (ACS Pharmacology & Translational Science, 2022)
